Assays:
glucocorticoid receptor [1] = biological target: T1, glucocorticoid receptor (Homo sapiens, UniProt P04150); experiment: GRE reporter gene test (Experiment Example 1), HEK293T cells transfected with pGL4.35 and p-Bind GR Vector; format: cell-based; conditions: for EC50: GRE reporter gene, HEK293T cells, 18-20 h incubation; for Emax: HEK-293T; for maximum agonistic effect (Emax): compared with dexamethasone, transfected HEK293T cells
T1 sequence (P04150 524-777 limits assumed): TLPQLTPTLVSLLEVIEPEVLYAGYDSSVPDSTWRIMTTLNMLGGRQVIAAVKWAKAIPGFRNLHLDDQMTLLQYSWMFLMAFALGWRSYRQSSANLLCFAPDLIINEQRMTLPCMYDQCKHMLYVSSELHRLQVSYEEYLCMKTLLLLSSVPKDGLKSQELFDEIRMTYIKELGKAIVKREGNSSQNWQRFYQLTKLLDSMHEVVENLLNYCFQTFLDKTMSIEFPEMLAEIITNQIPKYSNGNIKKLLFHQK
Protocol: The compound of the present invention to be tested was formulated into a 10 mM solution with DMSO, and then subjected to 4-fold dilution at 10 concentration points using DMSO to obtain a 1000× mother liquor, with a final test concentration of 0.000038-10 μM.
(§1) HEK293T cells (ATCC) were plated in a 100 mm culture dish at a density of 6*10^6 cells/culture dish, and cultured for 16 h under the conditions of 37° C. and 5% CO2. Plasmids (pGL4.35 [luc2P/9XGAL4 UAS/Hygro], p-Bind GR Vector, Promega) and Lipofectamine® 3000 (Invitrogen) were mixed, added into the culture dish, and then incubated for 5-6 h under the conditions of 37° C. and 5% CO2.
In a 384-well plate (PerkinElmer), 25 nL of the compound mother liquor was added, and then HEK293T cells transfected with plasmids were added at a density of 18000 cells/well. The cells were incubated for 18-20 h under the conditions of 37° C. and 5% CO2.
After the incubation was ended, 25 μL of britelite plus luciferase assay reagent (PerkinElmer) was added, and then reading was performed using an Envision 2105 multiplate reader (PerkinElmer).
(§2) The activity was calculated using the following formula, % activity=100*(signal of compound well−average signal of negative control well)/(average signal of positive control well−average signal of negative control well). […] Fitting calculation of EC50 was performed on % activity and the logarithmic concentration of the compound using Graphpad 8.0, Y=Bottom+(Top−Bottom)/(1+10^((Log EC50−X)*HillSlope)), wherein Y is % activity, and X is the logarithmic concentration of the compound.

glucocorticoid receptor [2] = biological target: T1, glucocorticoid receptor; experiment: GRE reporter gene test (Experiment Example 2), HEK293T cells transfected with pGL4.35 and p-Bind GR Vector; format: cell-based; conditions: for Emax: HEK-293T; for EC50: GRE reporter gene, HEK293T cells, 18-20 h incubation
Protocol: The compound of the present invention to be tested was formulated into a 1 mM solution with DMSO, and then subjected to 4-fold dilution at 10 concentration points using DMSO to obtain a 1000× mother liquor, with a final test concentration of 0.0000038-1 μM.
as §1
In a 384-well plate (PerkinElmer), 25 nL of the compound mother liquor was added, and then HEK293T cells transfected with plasmids were added at a density of 18000 cells/well (25 μL). The cells were incubated for 18-20 h under the conditions of 37° C. and 5% CO2.
After the incubation was ended, 25 μL of britelite plus luciferase assay reagent (PerkinElmer) was added, and then reading was performed using an Envision 2105 multimode reader (PerkinElmer).
as §2

| Structure (SMILES) | EC50 (glucocorticoid receptor [1]) [nM] | Emax (glucocorticoid receptor [1]; read-out: Emax) [%] | maximum agonistic effect (Emax) (glucocorticoid receptor [1]) | other results |
| --- | --- | --- | --- | --- |
| C[C@@H]1C[C@H]2[C@@H]3C[C@H](F)C4=CC(=O)C=C[C@]4(C)[C@@]3(F)[C@@H](O)C[C@]2(C)[C@@]1(OC(=O)[C@H]1C[C@@H]1c1ccc(N)cc1)C(=O)SCF [C-1] | 0.9 | 102 | superior to dexamethasone | – |
| C[C@@H]1C[C@H]2[C@@H]3C[C@H](F)C4=CC(=O)C=C[C@]4(C)[C@@]3(F)[C@@H](O)C[C@]2(C)[C@@]1(OC(=O)c1ccc(O)cc1)C(=O)SCF [B-13] | 0.27 | 100 | – | – |
| C[C@@H]1C[C@H]2[C@@H]3C[C@H](F)C4=CC(=O)C=C[C@]4(C)[C@@]3(F)[C@@H](O)C[C@]2(C)[C@@]1(OC(=O)/C=C/c1ccc(F)c(N)c1)C(=O)SCF [E-3] | 1.2 | 97.2 | – | – |
| C[C@@H]1C[C@H]2[C@@H]3C[C@H](F)C4=CC(=O)C=C[C@]4(C)[C@@]3(F)[C@@H](O)C[C@]2(C)[C@@]1(OC(=O)c1ccc(F)c(N)c1)C(=O)OCF [O-1, fluoromethyl (6S,8S,9R,10S,11S,13S,14S,16R,17R)-17-((3-amino-4-fluorobenzoyl)oxy)-6,9-difluoro-11-hydroxy-10,13,16-trimethyl-3-oxo-6,7,8,9,10,11,12,13,14,15,16,17-dodecahydro-3H-cyclopenta[a]phenanthrene-17-carboxylate] | 0.2 | 87.3 | – | – |
| C[C@@H]1C[C@H]2[C@@H]3C[C@H](F)C4=CC(=O)C=C[C@]4(C)[C@@]3(F)[C@@H](O)C[C@]2(C)[C@@]1(OC(=O)c1ccccc1)C(=O)SCF [H-1, (6S,8S,9R,10S,11S,13S,14S,16R,17R)-6,9-difluoro-17-((fluoromethyl)thio)carbonyl)-11-hydroxy-10,13,16-trimethyl-3-oxo-6,7,8,9,10,11,12,13,14,15,16,17-dodecahydro-3H-cyclopenta[a]phenanthren-17-yl benzoate] | 0.18 | 110 | superior to dexamethasone | – |
| C[C@@H]1C[C@H]2[C@@H]3C[C@H](F)C4=CC(=O)C=C[C@]4(C)[C@@]3(F)[C@@H](O)C[C@]2(C)[C@@]1(OC(=O)c1cc(N)co1)C(=O)SCF [F-2, (6S,8S,9R,10S,11S,13S,14S,16R,17R)-6,9-difluoro-17-(((fluoromethyl)thio)carbonyl)-11-hydroxy-10,13,16-trimethyl-3-oxo-6,7,8,9,10,11,12,13,14,15,16,17-dodecahydro-3H-cyclopenta[a]phenanthren-17-yl 4-aminofuran-2-carboxylate] | 1.2 | 125 | superior to dexamethasone | – |
| C[C@@H]1C[C@H]2[C@@H]3C[C@H](F)C4=CC(=O)C=C[C@]4(C)[C@@]3(F)[C@@H](O)C[C@]2(C)[C@@]1(OC(=O)c1ccc(F)cc1)C(=O)SCF [H-5] | 0.16 | 107 | superior to dexamethasone | – |
| C[C@@H]1C[C@H]2[C@@H]3C[C@H](F)C4=CC(=O)C=C[C@]4(C)[C@@]3(F)[C@@H](O)C[C@]2(C)[C@@]1(OC(=O)c1ccc(F)c(N)c1)C(=O)OCCl [O-3, chloromethyl (6S,8S,9R,10S,11S,13S,14S,16R,17R)-17-((3-amino-4-fluorobenzoyl)oxy)-6,9-difluoro-11-hydroxy-10,13,16-trimethyl-3-oxo-6,7,8,9,10,11,12,13,14,15,16,17-dodecahydro-3H-cyclopenta[a]phenanthrene-17-carboxylate] | 0.4 | 87.7 | – | – |
| C[C@@H]1C[C@H]2[C@@H]3CCC4=CC(=O)C=C[C@]4(C)[C@@]3(F)[C@@H](O)C[C@]2(C)[C@@]1(O)C(=O)CO [Dexamethasone, reference compound] | – | – | – | Emax (glucocorticoid receptor [2]): 98.3%; Emax (glucocorticoid receptor [1]): 100% |
| C[C@@H]1C[C@H]2[C@@H]3C[C@H](F)C4=CC(=O)C=C[C@]4(C)[C@@]3(F)[C@@H](O)C[C@]2(C)[C@@]1(OC(=O)c1ccnc(N)c1)C(=O)SCF [P-1, (6S,8S,9R,10S,11S,13S,14S,16R,17R)-6,9-difluoro-17-(((fluoromethyl)thio)carbonyl)-11-hydroxy-10,13,16-trimethyl-3-oxo-6,7,8,9,10,11,12,13,14,15,16,17-dodecahydro-3H-cyclopenta[a]phenanthren-17-yl 2-aminoisonicotinate] | 1.4 | 91.2 | – | – |
| C[C@@H]1C[C@H]2[C@@H]3C[C@H](F)C4=CC(=O)C=C[C@]4(C)[C@@]3(F)[C@@H](O)C[C@]2(C)[C@@]1(OC(=O)c1cccc(O)c1)C(=O)SCF [B-1] | 0.19 | 105 | superior to dexamethasone | – |
| C[C@@H]1C[C@H]2[C@@H]3C[C@H](F)C4=CC(=O)C=C[C@]4(C)[C@@]3(F)[C@@H](O)C[C@]2(C)[C@@]1(OC(=O)c1cccc(CO)c1)C(=O)SCF [B-35, (6S,8S,9R,10S,11S,13S,14S,16R,17R)-6,9-difluoro-17-(((fluoromethyl)thio)carbonyl)-11-hydroxy-10,13,16-trimethyl-3-oxo-6,7,8,9,10,11,12,13,14,15,16,17-dodecahydro-3H-cyclopenta[a]phenanthren-17-yl 3-(hydroxymethyl)benzoate] | – | – | – | EC50 (glucocorticoid receptor [2]): 2.4 nM; Emax (glucocorticoid receptor [2]): 66.2% |
| C[C@@H]1C[C@H]2[C@@H]3C[C@H](F)C4=CC(=O)C=C[C@]4(C)[C@@]3(F)[C@@H](O)C[C@]2(C)[C@@]1(OC(=O)c1ccccc1O)C(=O)SCF [B-25] | 0.13 | 85.6 | – | – |
| C[C@@H]1C[C@H]2[C@@H]3C[C@H](F)C4=CC(=O)C=C[C@]4(C)[C@@]3(F)[C@@H](O)C[C@]2(C)[C@@]1(OC(=O)c1cc(CO)co1)C(=O)SCF [F-9, (6S,8S,9R,10S,11S,13S,14S,16R,17R)-6,9-difluoro-17-(((fluoromethyl)thio)carbonyl)-11-hydroxy-10,13,16-trimethyl-3-oxo-6,7,8,9,10,11,12,13,14,15,16,17-dodecahydro-3H-cyclopenta[a]phenanthren-17-yl 4-(hydroxymethyl)furan-2-carboxylate] | – | – | – | EC50 (glucocorticoid receptor [2]): 0.4 nM; Emax (glucocorticoid receptor [2]): 134%; maximum agonistic activity (Emax) (glucocorticoid receptor [2]; compared with dexamethasone, transfected HEK293T cells): superior to dexamethasone |

From US20260199497A1, “GLUCOCORTICOID RECEPTOR AGONIST AND CONJUGATE THEREOF” (priority 2023, published 2026)
